Here are results for 13 molecules from ChEMBL document CHEMBL5236653, “Dual functional antioxidant and butyrylcholinesterase inhibitors for the treatment of Alzheimer's disease: Design, synthesis and evaluation of novel melatonin-alkylbenzylamine hybrids” (Bioorg Med Chem, 2023).

The structures appear in SMILES notation.

One series deals with Acetylcholinesterase (Electrophorus electricus, UniProt O42275). As to the kind of experiment: Inhibition of electric eel AChE using ATCI and BTCI as substrate preincubated for 5 mins followed by substrate addition and measured after 3 mins by DTNB-reagent based Ellman's method.
Acetylcholinesterase (Electrophorus electricus, UniProt O42275), sequence (O42275 whole entry): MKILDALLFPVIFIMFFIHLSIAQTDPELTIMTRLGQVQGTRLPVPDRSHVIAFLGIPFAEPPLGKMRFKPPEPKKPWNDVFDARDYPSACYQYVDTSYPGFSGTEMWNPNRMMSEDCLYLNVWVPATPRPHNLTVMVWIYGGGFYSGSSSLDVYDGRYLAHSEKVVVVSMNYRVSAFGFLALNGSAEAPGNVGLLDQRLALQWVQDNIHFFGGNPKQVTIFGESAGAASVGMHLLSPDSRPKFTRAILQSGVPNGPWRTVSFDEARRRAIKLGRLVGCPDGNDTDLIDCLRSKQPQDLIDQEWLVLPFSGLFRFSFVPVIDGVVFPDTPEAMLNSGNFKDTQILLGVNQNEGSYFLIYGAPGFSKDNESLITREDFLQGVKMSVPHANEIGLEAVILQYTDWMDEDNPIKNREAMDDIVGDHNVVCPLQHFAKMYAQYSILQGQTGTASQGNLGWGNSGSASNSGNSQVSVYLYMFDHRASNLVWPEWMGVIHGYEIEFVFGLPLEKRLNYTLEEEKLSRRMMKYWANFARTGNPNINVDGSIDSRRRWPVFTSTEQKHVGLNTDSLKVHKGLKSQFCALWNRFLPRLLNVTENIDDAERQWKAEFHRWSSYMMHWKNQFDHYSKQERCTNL
Conditions: not given
`COc1ccc2c(c1)c(C=O)cn2CCCCCCCCCN(C)Cc1cccc(O)c1` displayed a 50% inhibitory concentration (IC50) of 3360 nM.
Molecule `COc1ccc2c(c1)c(C=O)cn2CCCCCN(C)Cc1ccc(O)cc1` had a half-inhibitory concentration (IC50) of 26900 nM.
On to `COc1ccc2c(c1)c(C=O)cn2CCCCCCCCCCCCN(C)Cc1ccc(OC)c(OC)c1`, for which the IC50 was 51800 nM.
Consider `COc1ccc2c(c1)c(C=O)cn2CCCCCCCCCCN(C)Cc1ccc(O)cc1`, for which the IC50 is 1470 nM.
Turning to `COc1ccc2c(c1)c(C=O)cn2CCCCCCCCN(C)Cc1cccc(O)c1`, half-maximal inhibition (IC50) was put at 3390 nM.
The molecule `COc1ccc2c(c1)c(C=O)cn2CCCN(C)Cc1ccc(O)cc1` had an IC50 of 67600 nM.
`COc1ccc2c(c1)c(C=O)cn2CCCCCCCCCN(C)Cc1ccc(O)cc1` had an IC50 of 25800 nM.
For `COc1ccc2c(c1)c(C=O)cn2CCCCCCCCN(C)Cc1ccc(O)cc1`, the midpoint of inhibition, the IC50, lay at 1770 nM.

In a further series the target is Cholinesterase (Equus caballus, UniProt P81908). As to the kind of experiment: Inhibition of equine serum BuChE using ATCI and BTCI as substrate preincubated for 5 mins followed by substrate addition and measured after 3 mins by DTNB-reagent based Ellman's method. The class given is cell-free.
Cholinesterase (Equus caballus, UniProt P81908), sequence (P81908 whole entry): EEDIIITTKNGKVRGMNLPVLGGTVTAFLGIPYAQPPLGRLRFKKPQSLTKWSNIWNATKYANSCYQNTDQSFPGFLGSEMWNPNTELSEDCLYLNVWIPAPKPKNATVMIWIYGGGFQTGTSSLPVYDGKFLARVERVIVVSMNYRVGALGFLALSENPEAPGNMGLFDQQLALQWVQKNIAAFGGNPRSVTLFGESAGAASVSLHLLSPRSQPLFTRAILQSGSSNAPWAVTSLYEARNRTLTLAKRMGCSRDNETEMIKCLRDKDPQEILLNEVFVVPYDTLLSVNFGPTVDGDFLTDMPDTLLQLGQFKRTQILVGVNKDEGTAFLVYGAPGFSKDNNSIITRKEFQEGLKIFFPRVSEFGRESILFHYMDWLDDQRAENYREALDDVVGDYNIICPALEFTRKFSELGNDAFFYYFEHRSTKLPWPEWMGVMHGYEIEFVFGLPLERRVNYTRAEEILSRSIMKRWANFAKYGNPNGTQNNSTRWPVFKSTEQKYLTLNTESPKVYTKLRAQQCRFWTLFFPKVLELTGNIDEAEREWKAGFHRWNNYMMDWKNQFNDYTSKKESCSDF
Conditions: not given
The molecule `COc1ccc2c(c1)c(C=O)cn2CCCCCCCCCN(C)Cc1cccc(O)c1` registered an IC50 of 1630 nM.
Molecule `COc1ccc2c(c1)c(C=O)cn2CCCN(C)Cc1cccc(O)c1` had an IC50 of 72300 nM.
On the same count and under the same terms, to `COc1ccc2c(c1)c(C=O)cn2CCCCCN(C)Cc1ccc(O)cc1` belongs 6190 nM; to `COc1ccc2c(c1)c(C=O)cn2CCCCCCCCCCCCN(C)Cc1ccc(OC)c(OC)c1`, 880 nM; to `COc1ccc2c(c1)c(C=O)cn2CCCCCCCCCCN(C)Cc1ccc(O)cc1`, 120 nM.
As for `COc1ccc2c(c1)c(C=O)cn2CCCCCCCCN(C)Cc1cccc(O)c1`, inhibition was half-maximal at 5260 nM (IC50).
`COc1ccc2c(c1)c(C=O)cn2CCCCN(C)Cc1cccc(O)c1` registered a half-inhibitory concentration (IC50) of 42000 nM.
As for `COc1ccc2c(c1)c(C=O)cn2CCCN(C)Cc1ccc(O)cc1`, the IC50 was 6530 nM.
In the case of `COc1ccc2c(c1)c(C=O)cn2CCCCCCCCCN(C)Cc1ccc(O)cc1`, the IC50 came out at 530 nM.
As for `COc1ccc2c(c1)c(C=O)cn2CCCCCCCCN(C)Cc1ccc(O)cc1`, the IC50 is 450 nM.

For another series, the target named is Acetylcholinesterase (Electrophorus electricus) (UniProt O42275). The series is described as follows: Inhibition of electric eel AChE at 100 uM using ATCI and BTCI as substrate preincubated for 5 mins followed by substrate addition and measured after 3 mins by DTNB-reagent based Ellman's method relative to control. Conditions: time 8.0 min.
Acetylcholinesterase (Electrophorus electricus), sequence (O42275 24-633 limits assumed): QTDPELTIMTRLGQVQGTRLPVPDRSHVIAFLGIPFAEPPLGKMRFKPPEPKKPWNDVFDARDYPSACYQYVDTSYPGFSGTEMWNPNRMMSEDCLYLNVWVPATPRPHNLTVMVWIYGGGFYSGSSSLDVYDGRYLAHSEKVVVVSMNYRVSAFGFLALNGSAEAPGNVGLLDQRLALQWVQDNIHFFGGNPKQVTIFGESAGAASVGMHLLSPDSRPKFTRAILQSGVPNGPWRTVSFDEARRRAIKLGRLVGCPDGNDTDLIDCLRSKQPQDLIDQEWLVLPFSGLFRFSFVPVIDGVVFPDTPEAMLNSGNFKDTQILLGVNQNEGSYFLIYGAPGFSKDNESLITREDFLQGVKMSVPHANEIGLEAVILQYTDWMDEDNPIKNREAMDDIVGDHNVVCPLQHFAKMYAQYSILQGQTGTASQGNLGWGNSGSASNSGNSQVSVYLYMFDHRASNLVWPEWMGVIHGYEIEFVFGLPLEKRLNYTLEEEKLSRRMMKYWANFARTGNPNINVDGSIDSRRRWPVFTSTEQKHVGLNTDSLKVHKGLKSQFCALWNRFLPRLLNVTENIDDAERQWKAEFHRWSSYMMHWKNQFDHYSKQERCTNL
For `COc1ccc2c(c1)c(C=O)cn2CCCN(C)Cc1cccc(O)c1`, the inhibition came to 48.1%.
The same measure, in the same setting: to `COc1ccc2c(c1)c(C=O)cn2CCCCN(C)Cc1cccc(O)c1` belongs 48.2%.

Test system in another series: not listed separately
As to the kind of experiment: Selectivity index, ratio of IC50 for inhibition of equine serum BuChE to inhibition of electric eel AChE.
Conditions: not given
On to `COc1ccc2c(c1)c(C=O)cn2CCCN(C)Cc1cccc(O)c1`, for which the Selectivity Index is more than 1.
Same read-out and setting: to `COc1ccc2c(c1)c(C=O)cn2CCCCN(C)Cc1cccc(O)c1` belongs more than 2.

Test system in the next series: not listed separately
As to the kind of experiment: Antioxidant activity assessed as trolox equivalent of ORAC radical scavenging activity by ORAC assay. It is filed as functional.
Conditions: not given
On to `COc1ccc2c(c1)c(C=O)cn2CCCCCCCCCN(C)Cc1cccc(O)c1`, for which the Activity is less than 0.01 equiv.
Consider `COc1ccc2c(c1)c(C=O)cn2CCCN(C)Cc1cccc(O)c1`, for which the Activity was 0.37 equiv.
As for `COc1ccc2c(c1)c(C=O)cn2CCCCCN(C)Cc1ccc(O)cc1`, the Activity was determined as 0.78 equiv.
Turning to `COc1ccc2c(c1)c(C=O)cn2CCCCCCCCCCCCN(C)Cc1ccc(OC)c(OC)c1`, the Activity was less than 0.01 equiv.
On to `COc1ccc2c(c1)c(C=O)cn2CCCCCCCCCCN(C)Cc1ccc(O)cc1`, for which the Activity came to 0.05 equiv.
On to `O=c1c(O)c(-c2ccc(O)c(O)c2)oc2cc(O)cc(O)c12`, for which the Activity came out at 6.14 equiv.
For the molecule `COc1ccc2c(c1)c(C=O)cn2CCCCCCCCN(C)Cc1cccc(O)c1`, the Activity amounted to 0.22 equiv.
As for `COc1ccc2c(c1)c(C=O)cn2CCCCN(C)Cc1cccc(O)c1`, the Activity is less than 0.01 equiv.
In the case of `COc1ccc2c(c1)c(C=O)cn2CCCN(C)Cc1ccc(O)cc1`, the Activity is 1.12 equiv.
On the same count and under the same terms, to `COc1ccc2c(c1)c(C=O)cn2CCCCCCCCCN(C)Cc1ccc(O)cc1` belongs less than 0.01 equiv; to `COc1ccc2c(c1)c(C=O)cn2CCCCCCCCN(C)Cc1ccc(O)cc1`, 0.28 equiv.

The target in another series is Acetylcholinesterase (Homo sapiens, UniProt P22303). The series is described as follows: Inhibition of human erythrocyte AChE using ATCI and BTCI as substrate preincubated for 5 mins followed by substrate addition and measured after 3 mins by DTNB-reagent based Ellman's method.
Acetylcholinesterase (Homo sapiens, UniProt P22303), sequence (P22303 whole entry): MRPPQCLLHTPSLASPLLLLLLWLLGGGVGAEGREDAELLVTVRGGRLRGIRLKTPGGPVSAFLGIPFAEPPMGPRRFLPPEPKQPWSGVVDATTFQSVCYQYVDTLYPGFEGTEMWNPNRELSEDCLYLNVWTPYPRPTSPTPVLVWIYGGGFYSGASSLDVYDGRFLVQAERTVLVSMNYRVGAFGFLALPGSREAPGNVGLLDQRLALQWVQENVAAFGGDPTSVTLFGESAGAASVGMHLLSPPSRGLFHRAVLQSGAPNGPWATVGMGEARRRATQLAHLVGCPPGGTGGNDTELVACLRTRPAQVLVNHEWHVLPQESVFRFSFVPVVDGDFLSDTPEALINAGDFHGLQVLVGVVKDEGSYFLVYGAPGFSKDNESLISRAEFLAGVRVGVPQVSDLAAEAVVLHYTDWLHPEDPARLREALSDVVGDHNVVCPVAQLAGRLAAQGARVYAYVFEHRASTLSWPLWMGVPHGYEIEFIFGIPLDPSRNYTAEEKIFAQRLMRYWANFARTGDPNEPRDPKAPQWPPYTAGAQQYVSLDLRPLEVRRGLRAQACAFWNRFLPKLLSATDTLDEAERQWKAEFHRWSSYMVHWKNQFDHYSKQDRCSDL
Conditions: not given
In turn, `COc1ccc2c(c1)c(C=O)cn2CCCCCCCCCN(C)Cc1cccc(O)c1` had an IC50 of 5190 nM.
Regarding `COc1ccc2c(c1)c(C=O)cn2CCCCCCCCCCN(C)Cc1ccc(O)cc1`, the IC50 turned out to be 600 nM.
Still for that read-out and setting: the figure for `COc1ccc2c(c1)c(C=O)cn2CCCCCCCCN(C)Cc1cccc(O)c1` is 2600 nM; for `COc1ccc2c(c1)c(C=O)cn2CCCCCCCCCN(C)Cc1ccc(O)cc1` it is 6230 nM; for `COc1ccc2c(c1)c(C=O)cn2CCCCCCCCN(C)Cc1ccc(O)cc1` it is 2060 nM.

In a further series the target is Cholinesterase (Homo sapiens, UniProt P06276). As to the kind of experiment: Inhibition of human serum BuChE using ATCI and BTCI as substrate preincubated for 5 mins followed by substrate addition and measured after 3 mins by DTNB-reagent based Ellman's method. The class given is cell-free.
Cholinesterase (Homo sapiens, UniProt P06276), sequence (P06276 whole entry): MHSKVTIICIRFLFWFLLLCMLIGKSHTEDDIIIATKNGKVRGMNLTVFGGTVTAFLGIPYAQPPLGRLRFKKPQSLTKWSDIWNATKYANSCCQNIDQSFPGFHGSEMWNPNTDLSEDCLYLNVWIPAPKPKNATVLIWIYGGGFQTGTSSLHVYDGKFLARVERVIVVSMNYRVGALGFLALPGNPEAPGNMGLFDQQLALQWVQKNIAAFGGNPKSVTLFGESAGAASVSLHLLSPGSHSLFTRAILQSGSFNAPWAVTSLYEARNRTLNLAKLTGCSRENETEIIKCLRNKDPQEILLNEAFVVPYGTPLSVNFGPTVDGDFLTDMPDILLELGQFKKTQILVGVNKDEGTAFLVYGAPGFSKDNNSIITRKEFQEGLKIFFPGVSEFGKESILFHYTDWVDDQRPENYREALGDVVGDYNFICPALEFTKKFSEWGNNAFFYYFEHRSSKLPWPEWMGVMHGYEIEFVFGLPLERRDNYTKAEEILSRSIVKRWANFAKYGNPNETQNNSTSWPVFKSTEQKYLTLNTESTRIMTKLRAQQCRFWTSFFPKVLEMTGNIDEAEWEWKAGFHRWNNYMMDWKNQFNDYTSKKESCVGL
Conditions: not given
`COc1ccc2c(c1)c(C=O)cn2CCCCCCCCCN(C)Cc1cccc(O)c1`: the IC50 is 2360 nM.
Still for that read-out and setting: to `COc1ccc2c(c1)c(C=O)cn2CCCCCCCCCCN(C)Cc1ccc(O)cc1` belongs 190 nM; to `COc1ccc2c(c1)c(C=O)cn2CCCCCCCCN(C)Cc1cccc(O)c1`, 2150 nM; to `COc1ccc2c(c1)c(C=O)cn2CCCCCCCCCN(C)Cc1ccc(O)cc1`, 390 nM.
The same measure, in the same setting: to `COc1ccc2c(c1)c(C=O)cn2CCCCCCCCN(C)Cc1ccc(O)cc1` belongs 490 nM.

Test system in the next series: not listed separately
The series is described as follows: Selectivity index, ratio of IC50 for inhibition of human erythrocyte AChE to IC50 for inhibition of human serum BuChE.
Conditions: not given
As for `COc1ccc2c(c1)c(C=O)cn2CCCCCCCCCN(C)Cc1cccc(O)c1`, the Ratio IC50 was 2.2.
For `COc1ccc2c(c1)c(C=O)cn2CCCCCCCCCCN(C)Cc1ccc(O)cc1`, the Ratio IC50 stood at 3.16.
The same measure, in the same setting: the figure for `COc1ccc2c(c1)c(C=O)cn2CCCCCCCCN(C)Cc1cccc(O)c1` is 1.21; for `COc1ccc2c(c1)c(C=O)cn2CCCCCCCCCN(C)Cc1ccc(O)cc1` it is 16.
As for `COc1ccc2c(c1)c(C=O)cn2CCCCCCCCN(C)Cc1ccc(O)cc1`, the Ratio IC50 was determined as 4.2.

Test system in another series: not listed separately
The series is described as follows: in vitro. Conditions: PAMPA.
Description: Permeability coefficient of the compound across blood brain barrier incubated for 18 hrs by PAMPA assay
Molecule `CN(C)CCCN1c2ccccc2Sc2ccc(Cl)cc21` [CHLORPROMAZINE] came in with a Papp at 18 h of 5.93 ×10⁻⁶ cm/s.
Same read-out and setting: the figure for `COc1ccc2c(c1)c(C=O)cn2CCCCCCCCCCCCN(C)Cc1ccc(OC)c(OC)c1` is 5.27 ×10⁻⁶ cm/s; for `COc1ccc2c(c1)c(C=O)cn2CCCCCCCCCCN(C)Cc1ccc(O)cc1` it is 5.46 ×10⁻⁶ cm/s; for `COc1ccc2c(c1)c(C=O)cn2CCCCCCCCN(C)Cc1cccc(O)c1` it is 6.05 ×10⁻⁶ cm/s.
In turn, `COc1ccc2c(c1)c(C=O)cn2CCCN(C)Cc1ccc(O)cc1` came in with a Papp at 18 h of 5.69 ×10⁻⁶ cm/s.
Molecule `COc1ccc2c(c1)c(C=O)cn2CCCCCCCCCN(C)Cc1ccc(O)cc1` returned a Papp at 18 h of 5.85 ×10⁻⁶ cm/s.
In turn, `C[C@]12CC[C@@H]3c4ccc(O)cc4CC[C@H]3[C@@H]1CC[C@@H]2O` [ESTRADIOL] displayed a Papp at 18 h of 14.1 ×10⁻⁶ cm/s.
The molecule `COc1ccc2c(c1)c(C=O)cn2CCCCCCCCN(C)Cc1ccc(O)cc1` yielded a Papp at 18 h of 4.62 ×10⁻⁶ cm/s.
